Measurements: patent US20260201008A1, “SECRETIN-DERIVED GLP1R SELECTIVE AGONISTS” (GUBRA A/S, priority 2023, published 2026)
Read-outs that look alike come from different tables or passages of the source. Numbered stars: 1 amine (or outer) side, 2 acyl side, 3 side chain; on linkers, the order of the positions; unused ones are H or OH. Square brackets hold non-standard residues; d marks the D form. Side chains are listed from the residue outwards. Ends that are not written are not given here. Peptide text beside a SMILES is read from it. * marks the point of attachment. C20 diacid = O=C(O)CCCCCCCCCCCCCCCCCCC(=O)*; γGlu = O=C(O)[C@H](CCC(=O)[*:2])N[*:1]; AEEA = NCCOCCOCC(=O)O; Aib = CC(C)(N)C(=O)O

What was measured:
SCTR = SCTR (Homo sapiens, UniProt P47872); test: hSCTR potency, cAMP accumulation in CHO-K1 cells stably overexpressing hSCTR; assay type: cell-based; design: alternatively Euroscreen ES-712-AF; FAST-0161L; host or cells: CHO-K1; conditions: cAMP accumulation, CHO-K1 cells overexpressing hSCTR
SCTR, sequence (P47872 23-440): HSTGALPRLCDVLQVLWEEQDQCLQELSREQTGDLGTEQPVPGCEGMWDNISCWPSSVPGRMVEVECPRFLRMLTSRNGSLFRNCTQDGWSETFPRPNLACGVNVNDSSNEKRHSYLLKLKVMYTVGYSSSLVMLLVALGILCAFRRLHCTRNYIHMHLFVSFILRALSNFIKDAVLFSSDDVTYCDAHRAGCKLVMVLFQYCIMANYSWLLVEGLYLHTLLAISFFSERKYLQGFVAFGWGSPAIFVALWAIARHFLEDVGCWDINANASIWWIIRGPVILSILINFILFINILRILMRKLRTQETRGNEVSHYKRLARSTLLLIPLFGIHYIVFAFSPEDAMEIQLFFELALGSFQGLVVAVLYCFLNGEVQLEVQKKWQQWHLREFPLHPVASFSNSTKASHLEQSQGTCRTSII
How it was run: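 EC50 derived from variable-slope nonlinear regression on 11-point, 3-fold series run in duplicate (crude peptides: 5 points, 10-fold, n=1). Compound stimulation lasted 30 min at room temperature in casein/IBMX-containing DPBS (0.05%, 0.5 mM), 2000 cells/well; cAMP detected by time-resolved FRET after one hour.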

[1] = Turbidity of crude library peptides (absorbance at 600 nm); assay type: physicochemical; conditions: Physical stability of peptides
How it was run: (§1)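 Turbidity is the absorbance at 600 nm, taken before heating. Fibril signal is the mean ThT emission at 480 nm (450 nm excitation), read every 10 min over 72 h at 40° C with 700 rpm shaking between reads. Peptides at 267 μM, pH 4.0 acetate or pH 7.0 phosphate buffer (50 mM), 4 μM ThT final.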

GLP1R = GLP1R (Homo sapiens, UniProt P43220); test: hGLP1R potency, cAMP accumulation in CHO-K1 cells stably overexpressing hGLP1R; assay type: cell-based; design: host or cells: CHO-K1; conditions: for EC50: cAMP accumulation, CHO-K1 cells overexpressing hGLP1R; for SCTR EC50/GLP1R EC50 ratio: selectivity for hGLP1R over hSCTR, cAMP accumulation in CHO-K1 cells; for Selectivity: SCTR EC50/GLP1R EC50 ratio
GLP1R, sequence (P43220 24-463): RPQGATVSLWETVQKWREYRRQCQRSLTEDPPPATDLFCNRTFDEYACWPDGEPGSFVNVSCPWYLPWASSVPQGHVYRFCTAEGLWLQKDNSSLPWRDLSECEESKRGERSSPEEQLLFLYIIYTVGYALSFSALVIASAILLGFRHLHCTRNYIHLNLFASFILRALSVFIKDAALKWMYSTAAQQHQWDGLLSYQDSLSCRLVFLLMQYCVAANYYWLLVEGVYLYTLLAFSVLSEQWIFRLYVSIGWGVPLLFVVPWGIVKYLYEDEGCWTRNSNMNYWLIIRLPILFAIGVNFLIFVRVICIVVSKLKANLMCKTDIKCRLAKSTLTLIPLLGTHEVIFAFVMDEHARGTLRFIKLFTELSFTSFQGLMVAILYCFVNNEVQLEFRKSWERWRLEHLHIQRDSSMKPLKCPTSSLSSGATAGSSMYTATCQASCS
How it was run: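 EC50 derives from variable-slope nonlinear regression of cAMP HTRF signal, with purified peptides tested as 11 three-fold dilutions in duplicate. Assay: hGLP1R-overexpressing CHO-K1 cells, 0.5 mM IBMX, 0.05% casein in DPBS, 30 min room-temperature stimulation, GLP-1(7-36) as reference agonist.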

[2] = Fibril formation of crude library peptides (Thioflavin T); assay type: physicochemical; design: key: average ThT fluorescence emission at 480 nm (ex 450 nm), raw units; conditions: Physical stability of peptides
How it was run: as §1

[3] = molecular target: human secretin receptor (hSCTR) (human, UniProt P47872 23-440); test: cell-based or functional assay
human secretin receptor (hSCTR), sequence (P47872 23-440): as the sequence (P47872 23-440) above

[4] = molecular target: human GLP-1 receptor (hGLP1R) (human, UniProt P43220 24-463); test: cell-based or functional assay
[5] = read-out: hSCTR pEC50 (converted)
[6] = read-out: hGLP1R pEC50 (converted)
[7] = read-out: pEC50 hSCTR (converted)
[8] = read-out: pEC50 hGLPR1 (converted)

| EC50 (SCTR; [5]) [nM] | Turbidity (pH 7) [1] | EC50 (GLP1R; [6]) [nM] | SCTR EC50/GLP1R EC50 ratio (GLP1R) | Fibril formation [2] | EC50 (SCTR; [7]) [nM] | Selectivity (GLP1R) | EC50 (GLP1R; [8]) [nM] | pEC50 hSCTR [3] | pEC50 hGLPR1 [4] | Molecule |
| --- | --- | --- | --- | --- | --- | --- | --- | --- | --- | --- |
| 126 | 0.09 | 0.00631 | 21979 | 4010 |  |  |  |  |  | CC[C@H](C)[C@H](NC(=O)C(C)(C)NC(=O)[C@H](C)NC(=O)[C@H](CCC(=O)O)NC(=O)[C@H](CCC(=O)O)NC(=O)[C@H](CCCCNC(=O)COCCOCCNC(=O)COCCOCCNC(=O)CC[C@H](NC(=O)CCCCCCCCCCCCCCCCCCC(=O)O)C(=O)O)NC(=O)[C@H](CC(C)C)NC(=O)[C@H](Cc1ccc(O)cc1)NC(=O)[C@H](CO)NC(=O)[C@@H](NC(=O)[C@H](CC(=O)O)NC(=O)[C@H](CO)NC(=O)[C@@H](NC(=O)[C@H](Cc1ccccc1)NC(=O)[C@@H](NC(=O)CNC(=O)[C@H](CCC(=O)O)NC(=O)C(C)(C)NC(=O)[C@@H](N)Cc1c[nH]cn1)[C@@H](C)O)[C@@H](C)O)C(C)C)C(=O)N[C@@H](CCC(N)=O)C(=O)N[C@@H](CCCNC(=N)N)C(=O)N[C@@H](Cc1ccccc1)C(=O)N[C@@H](CC(C)C)C(=O)N[C@@H](CCC(=O)O)C(=O)N[C@@H](Cc1c[nH]cn1)C(=O)N[C@@H](CC(C)C)C(=O)N[C@H](C(N)=O)C(C)C [compound 139] (H-H[Aib]EGTFTSDVSYLK([AEEA-AEEA-γGlu-C20 diacid])EEA[Aib]IQRFLEHLV-NH2) |
| 1580 | 0.09 | 0.01 | 145949 | 10277 |  |  |  |  |  | CC(C)C[C@H](NC(=O)[C@H](Cc1ccccc1)NC(=O)[C@H](CCCNC(=N)N)NC(=O)[C@H](CCC(N)=O)NC(=O)C(C)(C)NC(=O)[C@H](C)NC(=O)[C@H](C)NC(=O)[C@H](CCC(=O)O)NC(=O)[C@H](CCC(=O)O)NC(=O)[C@H](CCCCNC(=O)COCCOCCNC(=O)COCCOCCNC(=O)CC[C@H](NC(=O)CCCCCCCCCCCCCCCCCCC(=O)O)C(=O)O)NC(=O)[C@H](CC(C)C)NC(=O)[C@H](CCC(=O)O)NC(=O)[C@H](CO)NC(=O)[C@@H](NC(=O)[C@H](CC(=O)O)NC(=O)[C@H](CO)NC(=O)[C@@H](NC(=O)[C@H](Cc1ccccc1)NC(=O)[C@@H](NC(=O)CNC(=O)[C@H](CCC(=O)O)NC(=O)C(C)(C)NC(=O)[C@@H](N)Cc1c[nH]cn1)[C@@H](C)O)[C@@H](C)O)C(C)C)C(=O)N[C@@H](CCC(=O)O)C(=O)N[C@@H](Cc1c[nH]cn1)C(=O)N[C@@H](CC(C)C)C(=O)N[C@H](C(N)=O)C(C)C [compound 97] (H-H[Aib]EGTFTSDVSELK([AEEA-AEEA-γGlu-C20 diacid])EEAA[Aib]QRFLEHLV-NH2) |
| 1260 | 0.72 | 0.0794 | 14555 | 20603 |  |  |  |  |  | CC[C@H](C)[C@H](NC(=O)[C@H](Cc1ccccc1)NC(=O)[C@H](CCCNC(=N)N)NC(=O)[C@H](CCC(N)=O)NC(=O)[C@H](CC(C)C)NC(=O)[C@H](C)NC(=O)[C@H](C)NC(=O)CNC(=O)[C@H](CCC(=O)O)NC(=O)[C@H](CC(C)C)NC(=O)[C@H](CC(C)C)NC(=O)[C@H](Cc1c[nH]c2ccccc12)NC(=O)[C@H](CO)NC(=O)C(C)(C)NC(=O)[C@H](CC(=O)O)NC(=O)[C@H](CO)NC(=O)[C@@H](NC(=O)[C@H](Cc1ccccc1)NC(=O)[C@@H](NC(=O)CNC(=O)[C@H](CCC(=O)O)NC(=O)C(C)(C)NC(=O)[C@@H](N)Cc1c[nH]cn1)[C@@H](C)O)[C@@H](C)O)C(=O)N[C@@H](CCC(N)=O)C(=O)N[C@@H](Cc1c[nH]c2ccccc12)C(=O)N[C@@H](CC(C)C)C(=O)N[C@H](C(N)=O)C(C)C [compound 108] (H-H[Aib]EGTFTSD[Aib]SWLLEGAALQRFIQWLV-NH2) |
|  | 0.08 |  |  | 89647 | 501 | 6431 | 0.0794 |  |  | CC(C)C[C@H](NC(=O)[C@H](Cc1ccccc1)NC(=O)[C@H](CCCNC(=N)N)NC(=O)[C@H](CCC(N)=O)NC(=O)[C@H](C)NC(=O)[C@H](C)NC(=O)[C@H](C)NC(=O)[C@H](Cc1ccccc1)NC(=O)[C@H](CCC(=O)O)NC(=O)[C@H](CCCCNC(=O)COCCOCCNC(=O)COCCOCCNC(=O)CC[C@H](NC(=O)CCCCCCCCCCCCCCCCCCC(=O)O)C(=O)O)NC(=O)[C@H](CC(C)C)NC(=O)[C@H](CCCNC(=N)N)NC(=O)[C@H](CO)NC(=O)[C@@H](NC(=O)[C@H](CC(=O)O)NC(=O)[C@H](CO)NC(=O)[C@@H](NC(=O)[C@H](Cc1ccccc1)NC(=O)[C@@H](NC(=O)CNC(=O)[C@H](CCC(=O)O)NC(=O)C(C)(C)NC(=O)[C@@H](N)Cc1c[nH]cn1)[C@@H](C)O)[C@@H](C)O)C(C)C)C(=O)N[C@@H](CCC(=O)O)C(=O)N[C@@H](Cc1c[nH]cn1)C(=O)N[C@@H](CC(C)C)C(=O)N[C@H](C(N)=O)C(C)C [compound 2] (H-H[Aib]EGTFTSDVSRLK([AEEA-AEEA-γGlu-C20 diacid])EFAAAQRFLEHLV-NH2) |
| 25100 | 0.09 | 0.794 | 33562 | 4754 |  |  |  |  |  | CC(C)C[C@H](NC(=O)[C@H](Cc1ccccc1)NC(=O)[C@H](CCCNC(=N)N)NC(=O)[C@H](CCC(N)=O)NC(=O)[C@H](CC(C)C)NC(=O)C(C)(C)NC(=O)[C@H](C)NC(=O)[C@H](CCC(=O)O)NC(=O)[C@H](CCC(=O)O)NC(=O)[C@H](CCCCNC(=O)COCCOCCNC(=O)COCCOCCNC(=O)CC[C@H](NC(=O)CCCCCCCCCCCCCCCCCCC(=O)O)C(=O)O)NC(=O)[C@H](CC(C)C)NC(=O)[C@H](Cc1ccc(O)cc1)NC(=O)[C@H](CO)NC(=O)[C@@H](NC(=O)[C@H](CC(=O)O)NC(=O)[C@H](CO)NC(=O)[C@@H](NC(=O)[C@H](Cc1ccccc1)NC(=O)[C@@H](NC(=O)CNC(=O)[C@H](Cc1c[nH]c2ccccc12)NC(=O)C(C)(C)NC(=O)[C@@H](N)Cc1c[nH]cn1)[C@@H](C)O)[C@@H](C)O)C(C)C)C(=O)N[C@@H](CCC(=O)O)C(=O)N[C@@H](Cc1c[nH]cn1)C(=O)N[C@@H](CC(C)C)C(=O)N[C@H](C(N)=O)C(C)C [compound 160] (H-H[Aib]WGTFTSDVSYLK([AEEA-AEEA-γGlu-C20 diacid])EEA[Aib]LQRFLEHLV-NH2) |
| 794 | 0.17 | 0.0158 | 52372 | 87225 |  |  |  |  |  | CC(C)C[C@H](NC(=O)[C@H](CCC(=O)O)NC(=O)[C@H](CCCCNC(=O)COCCOCCNC(=O)COCCOCCNC(=O)CC[C@H](NC(=O)CCCCCCCCCCCCCCCCCCC(=O)O)C(=O)O)NC(=O)[C@H](CC(C)C)NC(=O)[C@H](CCC(=O)O)NC(=O)[C@H](CO)NC(=O)[C@@H](NC(=O)[C@H](CC(=O)O)NC(=O)[C@H](CO)NC(=O)[C@@H](NC(=O)[C@H](Cc1ccccc1)NC(=O)[C@@H](NC(=O)CNC(=O)[C@H](CCC(=O)O)NC(=O)C(C)(C)NC(=O)[C@@H](N)Cc1c[nH]cn1)[C@@H](C)O)[C@@H](C)O)C(C)C)C(=O)N[C@@H](C)C(=O)N[C@@H](C)C(=O)N[C@@H](CCC(N)=O)C(=O)N[C@@H](CCC(N)=O)C(=O)N[C@@H](CCCNC(=N)N)C(=O)N[C@@H](Cc1ccccc1)C(=O)N[C@@H](CC(C)C)C(=O)N[C@@H](CCC(=O)O)C(=O)N[C@@H](Cc1c[nH]cn1)C(=O)N[C@@H](CC(C)C)C(=O)N[C@H](C(N)=O)C(C)C [compound 99] (H-H[Aib]EGTFTSDVSELK([AEEA-AEEA-γGlu-C20 diacid])ELAAQQRFLEHLV-NH2) |
|  | 0.09 |  |  | 16757 | 3160 | 33159 | 0.1 |  |  | CC(C)C[C@H](NC(=O)[C@H](Cc1ccccc1)NC(=O)[C@H](CCCNC(=N)N)NC(=O)[C@H](CCC(N)=O)NC(=O)C(C)(C)NC(=O)[C@H](C)NC(=O)[C@H](C)NC(=O)[C@H](Cc1ccccc1)NC(=O)[C@H](CCC(=O)O)NC(=O)[C@H](CCCCNC(=O)COCCOCCNC(=O)COCCOCCNC(=O)CC[C@H](NC(=O)CCCCCCCCCCCCCCCCCCC(=O)O)C(=O)O)NC(=O)[C@H](CC(C)C)NC(=O)[C@H](Cc1ccccc1)NC(=O)[C@H](CO)NC(=O)[C@@H](NC(=O)[C@H](CC(=O)O)NC(=O)[C@H](CO)NC(=O)[C@@H](NC(=O)[C@H](Cc1ccccc1)NC(=O)[C@@H](NC(=O)CNC(=O)[C@H](CCC(=O)O)NC(=O)C(C)(C)NC(=O)[C@@H](N)Cc1c[nH]cn1)[C@@H](C)O)[C@@H](C)O)C(C)C)C(=O)N[C@@H](CCC(=O)O)C(=O)N[C@@H](Cc1c[nH]cn1)C(=O)N[C@@H](CC(C)C)C(=O)N[C@H](C(N)=O)C(C)C [compound 27] (H-H[Aib]EGTFTSDVSFLK([AEEA-AEEA-γGlu-C20 diacid])EFAA[Aib]QRFLEHLV-NH2) |
|  |  |  |  |  |  |  |  | 6.8 -log M | 10.4 -log M | H[Aib]EGTFTSDVSRLK([AEEA-AEEA-γGlu-C20 diacid])EEAA[Aib]QRFLEHLV-NH2 (also: K14 lipid also given as C18DA[γE][OEG][OEG]-) [SEQ ID NO: 1] |
